Laboratory results as given in ChEMBL document CHEMBL4359897, “Discovery of novel functionalized 1,2,4-triazoles as PARP-1 inhibitors in breast cancer: Design, synthesis and antitumor activity evaluation” (Eur J Med Chem, 2019).
pIC50: −log10 of the molar value. Calls of active or inactive are those of the source. No cut-off for these calls is given here.

How the values were obtained:
[1] = biological target: Poly [ADP-ribose] polymerase 1 (Homo sapiens, UniProt P09874); experiment: Inhibition of recombinant human full length N-terminal GST- tagged PARP1 expressed in baculovirus infected sf9 cells using Colorimetric HRP as substrate incubated for 30 mins by UV/Vis spectrophotometer analysis
MCF7 [2] = experiment: Cytotoxicity against human MCF7 cells assessed as increase in extra cellular LDH at 2.5 to 5 uM incubated for 30 hrs by spectrophotometric based LDH assay; type: functional, cell-based
MCF7 [3] = experiment: Cytotoxicity against human MCF7 cells at 2.5 to 5 uM incubated for 30 hrs by MTT assay; type: functional, cell-based
MCF7 [4] = experiment: Inhibition of cell migration in human MCF7 cells at 2.5 to 5 uM incubated for 30 hrs by scratch wound assay relative to control; type: functional
MCF7 [5] = experiment: Antiproliferative activity against human MCF7 cells incubated for 30 hrs by hematoxylin staining based BrdU incorporation assay; type: functional, cell-based
MCF7 [6] = experiment: Antiproliferative activity against human MCF7 cells assessed as increase in PARP1-89 protein expression at 5 uM incubated for 30 hrs by Western blot analysis; type: functional, cell-based
MCF7 [7] = experiment: Inhibition of cell migration in human MCF7 cells incubated for 30 hrs by scratch wound assay; type: functional, cell-based

Poly [ADP-ribose] polymerase 1, sequence (P09874 whole entry): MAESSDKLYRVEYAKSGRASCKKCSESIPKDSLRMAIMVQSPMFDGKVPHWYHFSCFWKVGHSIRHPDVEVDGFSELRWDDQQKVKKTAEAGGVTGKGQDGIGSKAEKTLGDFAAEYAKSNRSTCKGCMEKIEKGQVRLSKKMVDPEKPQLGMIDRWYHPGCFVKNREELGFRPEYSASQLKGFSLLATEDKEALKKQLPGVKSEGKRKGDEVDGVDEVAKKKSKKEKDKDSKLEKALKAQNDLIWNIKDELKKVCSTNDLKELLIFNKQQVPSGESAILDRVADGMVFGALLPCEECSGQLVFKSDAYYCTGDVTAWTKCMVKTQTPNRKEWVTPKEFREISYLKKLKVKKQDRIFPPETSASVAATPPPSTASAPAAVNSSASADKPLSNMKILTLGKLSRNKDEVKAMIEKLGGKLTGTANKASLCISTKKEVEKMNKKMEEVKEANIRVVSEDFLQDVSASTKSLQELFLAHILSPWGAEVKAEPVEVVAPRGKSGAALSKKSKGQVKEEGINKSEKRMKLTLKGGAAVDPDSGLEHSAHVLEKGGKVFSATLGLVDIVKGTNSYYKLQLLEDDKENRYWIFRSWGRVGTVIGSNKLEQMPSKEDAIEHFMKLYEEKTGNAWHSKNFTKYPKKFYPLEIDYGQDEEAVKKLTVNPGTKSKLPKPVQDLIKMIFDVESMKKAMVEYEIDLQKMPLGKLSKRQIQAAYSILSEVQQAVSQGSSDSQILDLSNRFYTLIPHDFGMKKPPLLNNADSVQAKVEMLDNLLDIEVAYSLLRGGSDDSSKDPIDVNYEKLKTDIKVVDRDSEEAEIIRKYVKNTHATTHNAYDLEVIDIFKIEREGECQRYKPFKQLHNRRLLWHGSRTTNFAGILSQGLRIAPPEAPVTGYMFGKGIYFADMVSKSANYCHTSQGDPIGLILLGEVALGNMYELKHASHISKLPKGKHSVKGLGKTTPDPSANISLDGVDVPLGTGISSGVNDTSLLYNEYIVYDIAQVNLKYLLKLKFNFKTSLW

pIC50 [1]	Structure (SMILES)	Activity (MCF7 [2])	Activity (MCF7 [3])	inhibition (MCF7 [4])	Activity (MCF7 [5])	Activity (MCF7 [6])	inhibition (MCF7 [7])	inhibition (INH) (MCF7 [4])
6.48	CC(O)CSc1nnc(-c2cc3ccccc3[nH]2)n1-c1ccccc1 (configuration not stated)	Active						
5.09	S=c1[nH]nc(CSc2nnc(-c3cc4ccccc4[nH]3)n2-c2ccccc2)n1-c1ccccc1	Active						
5.65	CC(=O)OC[C@H]1O[C@@H](Sc2nnc(-c3cc4ccccc4[nH]3)n2-c2ccccc2)[C@H](OC(C)=O)[C@@H](OC(C)=O)[C@@H]1OC(C)=O	Active	Active	inactive	Dose-dependent effect	inactive		
5.62	C=CCSc1nnc(-c2cc3ccccc3[nH]2)n1-c1ccccc1	Active	Active		Dose-dependent effect	Active	Dose-dependent effect	30 - 40%
	O=C(c1cc(Cc2n[nH]c(=O)c3ccccc23)ccc1F)N1CCN(C(=O)C2CC2)CC1		Active					
5.68	S=c1[nH]nc(-c2cc3ccccc3[nH]2)n1-c1ccccc1	Active	Active		Dose-dependent effect	Active	Dose-dependent effect	30 - 40%
6.46	C=CCSc1nnc(-c2cc3ccccc3n2CC=C)n1-c1ccccc1	Active	Active		Dose-dependent effect	Active	Dose-dependent effect	30 - 40%
